Results as given in patent US7605160B2, “Pyrrolotriazine kinase inhibitors” (Bristol-Myers Squibb Company, priority 2006, dated 2009).

Tests used:
TrkA = molecular target: T1, TrkA (Homo sapiens, UniProt P04629); assay: TrkA tyrosine kinase assay (33P phosphorylation of polyGluTyr by recombinant enzyme); assay type: biochemical; details: recombinant kinase domain of human TrkA, PGT substrate, 30 uM ATP
T1 construct: The kinase domain of the human TrkA receptor is expressed in Sf9 insect cells as a histidine (His)-fusion protein; His; made in house; host or cells: Sf9 insect cells (baculovirus)
T1 sequence (P04629 510-781 limits assumed): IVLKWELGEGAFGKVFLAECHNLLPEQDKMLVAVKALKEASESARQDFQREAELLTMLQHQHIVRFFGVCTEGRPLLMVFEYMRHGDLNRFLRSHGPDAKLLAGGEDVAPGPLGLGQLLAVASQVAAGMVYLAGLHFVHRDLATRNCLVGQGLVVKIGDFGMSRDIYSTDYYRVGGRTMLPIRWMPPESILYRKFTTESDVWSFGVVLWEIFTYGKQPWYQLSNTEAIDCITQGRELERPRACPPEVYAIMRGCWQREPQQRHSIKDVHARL
Source text: The ability of compounds of the present invention to inhibit tyrosine kinase activity of TrkA may be measured using a recombinant enzyme in an assay that measures the ability of compounds to inhibit the phosphorylation of the exogenous substrate, polyGluTyr (PGT, Sigma™, 4:1). The kinase domain of the human TrkA receptor is expressed in Sf9 insect cells as a histidine (His)-fusion protein using a baculovirus expression system. The protein is purified from the lysates of these cells using an Ni-NTA affinity column. After the recombinant enzyme is purified, it is activated by incubation with cold ATP. The enzyme assay is performed in a 96-well plate. Test compounds are first dissolved in dimethylsulfoxide (DMSO) and then serially-diluted in a 96-well plate. The serially-diluted compounds are transferred to the 96-well assay plate so that the final concentration of DMSO in the enzyme assay is 1.64%. All assay components are diluted in phosphorylation buffer (20 mm MOPS, 10 mM MgCl2, 1 mM EDTA, 0.015% Brij-35, 0.1 mg/ml BSA, 0.0025% Beta-Mercaptoethanol). The recombinant enzyme is added to the assay plate containing test compound and the reaction is initiated with a substrate solution containing a final concentration of 0.1 mg/ml PGT, 30 uM ATP, and 0.008 mCi/ml ^33P-gammaATP (3000 Ci/mmol)(Perkin Elmer™) After a 1 hour incubation at 30° C., the reaction is terminated with 10% TCA and incubated at 4° C. for 1 hour. The reaction is filtered onto a Unifilter® GF/C™ filter plate (Perkin Elmer™) that has been presoaked with 0.1M NaPyrophosphate. Microscint-20 (Perkin Elmer™) is then added to the dried filter plate and the captured ^33P-phosphorylated PGT is quantitated on a microscintillation plate counter (TopCount•NXT™ (Perkin Elmer™)). Inhibition of the kinase enzymatic activity by the test compound is detected by a reduction in scintillation, and the concentration of compound that is required to inhibit the signal by 50% is reported as the IC50 value for the test compound.

TrkB = molecular target: T2, TrkB (Homo sapiens, UniProt Q16620); assay: TrkB tyrosine kinase assay (33P phosphorylation of polyGluTyr by recombinant enzyme); assay type: biochemical; details: recombinant kinase domain of human TrkB (amino acids 526-838), PGT substrate, 30 uM ATP
T2 construct: The kinase domain of the human TrkB receptor (amino acids 526-838); His; purchased Invitrogen; host or cells: insect cells
T2 sequence (Q16620 510-822): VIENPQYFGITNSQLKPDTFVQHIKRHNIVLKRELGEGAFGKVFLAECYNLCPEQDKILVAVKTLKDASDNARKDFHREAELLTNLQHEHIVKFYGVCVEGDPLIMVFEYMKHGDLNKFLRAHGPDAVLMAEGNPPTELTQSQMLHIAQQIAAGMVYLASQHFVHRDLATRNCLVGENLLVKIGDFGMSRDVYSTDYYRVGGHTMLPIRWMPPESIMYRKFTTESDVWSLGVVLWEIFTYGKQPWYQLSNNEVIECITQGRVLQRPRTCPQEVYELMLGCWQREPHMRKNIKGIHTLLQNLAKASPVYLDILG
Protocol: The ability of compounds of the present invention to inhibit tyrosine kinase activity of TrkB may be measured using a recombinant enzyme in an assay that measures the ability of compounds to inhibit the phosphorylation of the exogenous substrate, polyGluTyr (PGT, Sigma™, 4:1). The kinase domain of the human TrkB receptor (amino acids 526-838) is expressed in insect cells as a histidine (His)-fusion protein and is commercially available from Invitrogen™. The enzyme assay is performed in a 96-well plate. Test compounds are first dissolved in dimethylsulfoxide (DMSO) and then serially-diluted in a 96-well plate. The serially-diluted compounds are transferred to the 96-well assay plate so that the final concentration of DMSO in the enzyme assay is 1.64%. All assay components are diluted in phosphorylation buffer (20 mm MOPS, 10 mM MgCl2, 1 mM EDTA, 0.015% Brij-35, 0.1 mg/ml BSA, 0.0025% Beta-Mercaptoethanol). The recombinant enzyme is added to the assay plate containing test compound and the reaction is initiated with a substrate solution containing a final concentration of 0.1 mg/ml PGT, 30 uM ATP, and 0.008 mCi/ml ^33P-gammaATP (3000 Ci/mmol) (Perkin Elmer™). After a 1 hour incubation at 30° C., the reaction is terminated with 10% TCA and incubated at 4° C. for 1 hour. The reaction is filtered onto a Unifilter® GF/C™ filter plate (Perkin Elmer™) that has been presoaked with 0.1M NaPyrophosphate. Microscint-20(Perkin Elmer™) is then added to the dried filter plate and the captured ^33P-phosphorylated PGT is quantitated on a microscintillation plate counter (TopCount•NXT™ (Perkin Elmer™)). Inhibition of the kinase enzymatic activity by the test compound is detected by a reduction in scintillation, and the concentration of compound that is required to inhibit the signal by 50% is reported as the IC50 value for the test compound.

Structure (SMILES): C[C@H](Nc1nc(Nc2cc(C3CC3)n[nH]2)c2cccn2n1)c1ccc(F)cc1 [Compound 2, N^4-(3-cyclopropyl-1H-pyrazol-5-yl)-N^2-((1S)-1-(4-fluorophenyl)ethyl)pyrrolo[2,1-f][1,2,4]triazine-2,4-diamine]
- IC50 (TrkA): 0.0001 µM
- IC50 (TrkB): 0.0003 µM

Structure (SMILES): Cc1cc(Nc2nc(NC3CCCCC3)nn3cccc23)[nH]n1 [Compound 9, N^2-cyclohexyl-N^4-(5-methyl-1H-pyrazol-3-yl)pyrrolo[2,1-f] [1,2,4]triazine-2,4-diamine]
- IC50 (TrkA): 0.074 µM
- IC50 (TrkB): 0.225 µM

Structure (SMILES): NC1CCCC(Nc2nc(Nc3cc(C4CC4)n[nH]3)c3cccn3n2)C1 (centres unmarked) [Compound 12, N^2-(3-aminocyclohexyl)-N^4-(3-cyclopropyl-1H-pyrazol-5-yl) pyrrolo[2,1-f][1,2,4]triazine-2,4-diamine]
- IC50 (TrkA): 0.006 µM
- IC50 (TrkB): 0.035 µM

Structure (SMILES): C[C@H](Nc1nc(Nc2cc(-c3ccccc3)n[nH]2)c2cccn2n1)c1ccc(F)cc1 [Compound 28, N^2-((1S)-1-(4-fluorophenyl)ethyl)-N^4-(3-phenyl-1H-pyrazol-5-yl) pyrrolo[2,1-f][1,2,4]triazine-2,4-diamine]
- IC50 (TrkA): 0.0007 µM
- IC50 (TrkB): 0.0007 µM

Structure (SMILES): O[C@H]1CC[C@H](Nc2nc(Nc3cc(C4CC4)n[nH]3)c3cccn3n2)CC1 [Compound 38, trans-4-((4-((3-cyclopropyl-1H-pyrazol-5-yl)amino)pyrrolo[2,1-f] [1,2,4]triazin-2-yl)amino) cyclohexanol]
- IC50 (TrkA): 0.0005 µM
- IC50 (TrkB): 0.0009 µM

Structure (SMILES): CCC(O)CNc1nc(Nc2cc(C3CC3)n[nH]2)c2cccn2n1 (centres unmarked) [Compound 40, 1-((4-((3-cyclopropyl-1H-pyrazol-5-yl)amino)pyrrolo[2,1-f][1,2,4]triazin-2-yl)amino)-2-butanol]
- IC50 (TrkA): 0.003 µM
- IC50 (TrkB): 0.004 µM

Structure (SMILES): c1cc2c(Nc3cc(C4CC4)n[nH]3)nc(N[C@H]3CCNC3)nn2c1 [Compound 41, N^4-(3-cyclopropyl-1H-pyrazol-5-yl)-N^2-((3S)-3-pyrrolidinyl)pyrrolo [2,1-f][1,2,4]triazine-2,4-diamine]
- IC50 (TrkA): 0.018 µM
- IC50 (TrkB): 0.031 µM

Structure (SMILES): O=C(CNc1nc(Nc2cc(C3CC3)n[nH]2)c2cccn2n1)Nc1nccs1 [Compound 43, 2-((4-((3-cyclopropyl-1H-pyrazol-5-yl)amino)pyrrolo[2,1-f][1,2,4]triazin-2-yl)amino)-N-1,3-thiazol-2-ylacetamide]
- IC50 (TrkA): 0.0003 µM
- IC50 (TrkB): 0.0003 µM

Structure (SMILES): O=C(Nc1nccs1)[C@H](Cc1ccccc1)Nc1nc(Nc2cc(C3CC3)[nH]n2)c2cccn2n1 [Compound 44, (2S)-2-((4-((5-cyclopropyl-1H-pyrazol-3-yl)amino)pyrrolo[2,1-f][1,2,4]triazin-2-yl)amino)-3-phenyl-N-1,3-thiazol-2-ylpropanamide]
- IC50 (TrkA): 0.001 µM
- IC50 (TrkB): 0.002 µM

Structure (SMILES): CC(C)[C@H](CO)NC(=O)[C@H](C)Nc1nc(Nc2cc(C3CC3)n[nH]2)c2cccn2n1 [Compound 49, (2S)-2-((4-((3-cyclopropyl-1H-pyrazol-5-yl)amino)pyrrolo[2,1-f][1,2,4]triazin-2-yl)amino)-N-((1R)-1-(hydroxymethyl)-2-methylpropyl)propanamide]
- IC50 (TrkA): 0.012 µM
- IC50 (TrkB): 0.005 µM
